Laboratory results from patent publication US8613914B2, “Peptidomimetic sulfamide compounds and antiviral uses thereof” (Novartis AG, priority 2009, dated 2013).
pIC50: −log10 of the molar value.

Molecular target: HCV NS3-4A serine protease (full-length NS3-4A protein) (Hepatitis C virus genotype 1a (isolate 1) (HCV), UniProt P26664)
Test: HCV NS3-4A protease assay
Assay type: biochemical, HCV genotype 1a
Details: strain HCV-1, fluorogenic peptide substrate, read-out: Protease assay Ex. 12 IC50
Description: The inhibitory activity of certain compounds of Table A against HCV NS3-4A serine protease is determined in a homogenous assay using the full-length NS3-4A protein (genotype 1a, strain HCV-1) and a commercially available internally-quenched fluorogenic peptide substrate as described by Taliani, M., et al. 1996 Anal. Biochem. 240:60-67, which is incorporated by reference in its entirety.

Chain of HCV NS3-4A serine protease (full-length NS3-4A protein) (P26664 1027-1657): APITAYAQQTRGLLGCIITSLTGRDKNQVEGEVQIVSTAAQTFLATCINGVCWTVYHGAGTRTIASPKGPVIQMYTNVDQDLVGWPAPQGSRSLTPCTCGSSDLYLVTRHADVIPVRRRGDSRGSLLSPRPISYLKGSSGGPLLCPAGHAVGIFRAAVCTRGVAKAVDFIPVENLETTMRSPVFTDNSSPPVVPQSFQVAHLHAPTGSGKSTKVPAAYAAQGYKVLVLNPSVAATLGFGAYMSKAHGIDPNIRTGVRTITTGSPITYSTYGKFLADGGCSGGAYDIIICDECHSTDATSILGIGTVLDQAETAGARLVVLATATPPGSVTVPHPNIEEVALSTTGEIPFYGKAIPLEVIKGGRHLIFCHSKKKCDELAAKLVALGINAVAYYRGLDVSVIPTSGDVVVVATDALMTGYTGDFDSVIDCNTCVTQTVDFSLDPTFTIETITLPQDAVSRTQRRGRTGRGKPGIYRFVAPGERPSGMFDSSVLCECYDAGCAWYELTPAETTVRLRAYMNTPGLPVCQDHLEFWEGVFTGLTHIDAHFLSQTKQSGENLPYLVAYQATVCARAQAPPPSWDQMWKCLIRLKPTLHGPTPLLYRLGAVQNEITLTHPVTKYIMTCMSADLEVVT
Chain of HCV NS3-4A serine protease (full-length NS3-4A protein) (P26664 1658-1711 partner): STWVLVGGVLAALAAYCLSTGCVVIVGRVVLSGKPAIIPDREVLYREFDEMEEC

| SMILES | pIC50 |
| --- | --- |
| C=C[C@@H]1C[C@]1(NC(=O)[C@@H]1C[C@@]2(CN1C(=O)[C@@H](NC(=O)[C@@H](NC(=O)[C@@H]1CCCN1C(C)=O)C1CCCCC1)C(C)(C)C)C(C)(C)C21CCC1)C(=O)NS(=O)(=O)N1CCCC1 [Compound 187, (5R,8S)-7-[(2S)-2-{[({[(2S)-1-acetylpyrrolidin-2-yl]carbonyl}amino)(cyclohexyl)acetyl]amino}-3,3-dimethylbutanoyl]-10,10-dimethyl-N-{(1R,2S)-1-[(pyrrolidin-1-ylsulfonyl)carbamoyl]-2-vinylcyclopropyl}-7-azadispiro[3.0.4.1]decane-8-carboxamide] | 7.60 |
| C=C[C@@H]1C[C@]1(NC(=O)[C@@H]1C[C@@]2(CN1C(=O)[C@@H](NC(=O)[C@@H](NC(=O)[C@@H]1CCCN1CC)C1CCCCC1)C(C)(C)C)C(C)(C)C21CCC1)C(=O)NS(=O)(=O)N(C)CCC [Compound 98, (5R,8S)-7-[(2S)-2-{[(2S)-2-cyclohexyl-2-({[(2S)-1-ethylpyrrolidin-2-yl]carbonyl}amino)acetyl]amino}-3,3-dimethylbutanoyl]-10,10-dimethyl-N-[(1R,2S)-1-({[methyl(propyl)amino]sulfonyl}carbamoyl)-2-vinylcyclopropyl]-7-azadispiro[3.0.4.1]decane-8-carboxamide] | 8.15 |
| C=C[C@@H]1C[C@]1(NC(=O)[C@@H]1C[C@@]2(CN1C(=O)[C@@H](NC(=O)[C@@H](NC(=O)[C@@H]1CCCCN1C(C)C)C1CCCCC1)C(C)(C)C)C(C)(C)C21CCC1)C(=O)NS(=O)(=O)N1CCCC1 [Compound 13, (5R,8S)-7-[(2S)-2-{[(2S)-2-cyclohexyl-2-({[(2S)-1-isopropylpiperidin-2-yl]carbonyl}amino)acetyl]amino}-3,3-dimethylbutanoyl]-10,10-dimethyl-N-{(1R,2S)-1-[(pyrrolidin-1-ylsulfonyl)carbamoyl]-2-vinylcyclopropyl}-7-azadispiro[3.0.4.1]decane-8-carboxamide] | 8.52 |
| C=C[C@@H]1C[C@]1(NC(=O)C1C[C@@]2(CN1C(=O)[C@@H](NC(=O)C1CCCNC1=O)C(C)(C)C)C(C)(C)C21CCC1)C(=O)NS(=O)(=O)N1CCCC1 (stereo partly drawn) [Compound 78, (5R)-7-[(2S)-3,3-dimethyl-2-{[(2-oxopiperidin-3-yl)carbonyl]amino}butanoyl]-10,10-dimethyl-N-{(1R,2S)-1-[(pyrrolidin-1-ylsulfonyl)carbamoyl]-2-vinylcyclopropyl}-7-azadispiro[3.0.4.1]decane-8-carboxamide] | 6.19 |
| C=C[C@@H]1C[C@]1(NC(=O)[C@@H]1C[C@@]2(CN1C(=O)[C@@H](NC(=O)[C@@H](NC(=O)[C@@H]1CCCCN1C(C)C)C1CCCCC1)C(C)(C)C)C(C)(C)C21CCC1)C(=O)NS(=O)(=O)NC(C)(C)C [Compound 169, (5R,8S)-N-[(1R,2S)-1-{[(tert-butylamino)sulfonyl]carbamoyl}-2-vinylcyclopropyl]-7-[(2S)-2-{[(2S)-2-cyclohexyl-2-({[(2S)-1-isopropylpiperidin-2-yl]carbonyl}amino)acetyl]amino}-3,3-dimethylbutanoyl]-10,10-dimethyl-7-azadispiro[3.0.4.1]decane-8-carboxamide] | 8.82 |
| C=C[C@@H]1C[C@]1(NC(=O)[C@@H]1C[C@@]2(CN1C(=O)[C@@H](NC(=O)[C@@H](NC(=O)[C@@H]1CC(F)(F)CN1C(C)C)C1CCCCC1)C(C)(C)C)C(C)(C)C21CCC1)C(=O)NS(=O)(=O)N1CCCC1 [Compound 89, (5R,8S)-7-[(2S)-2-{[(2S)-2-cyclohexyl-2-({[(2S)-4,4-difluoro-1-isopropylpyrrolidin-2-yl]carbonyl}amino)acetyl]amino}-3,3-dimethylbutanoyl]-10,10-dimethyl-N-{(1R,2S)-1-[(pyrrolidin-1-ylsulfonyl)carbamoyl]-2-vinylcyclopropyl}-7-azadispiro[3.0.4.1]decane-8-carboxamide] | 7.52 |
| C=C[C@@H]1C[C@]1(NC(=O)[C@@H]1C[C@@]2(CN1C(=O)[C@@H](NC(=O)[C@@H](NC(=O)[C@@H]1CCCCN1C(C)C)C1(C)CCCCC1)C(C)(C)C)C(C)(C)C21CCC1)C(=O)NS(=O)(=O)N1CCCC1 [Compound 135, (5R,8S)-7-[(2S)-2-{[(2S)-2-({[(2S)-1-isopropylpiperidin-2-yl]carbonyl}amino)-2-(1-methylcyclohexyl)acetyl]amino}-3,3-dimethylbutanoyl]-10,10-dimethyl-N-{(1R,2S)-1-[(pyrrolidin-1-ylsulfonyl)carbamoyl]-2-vinylcyclopropyl}-7-azadispiro[3.0.4.1]decane-8-carboxamide] | 8.35 |
| CC[C@@H]1C[C@]1(NC(=O)[C@@H]1C[C@@]2(CN1C(=O)[C@@H](NC(=O)[C@@H](NC(=O)[C@@H]1CCCN1C(C)C)C1CCCCC1)C(C)(C)C)C(C)(C)C21CCC1)C(=O)NS(=O)(=O)N1CCCC1 [Compound 116, (5R,8S)-7-[(2S)-2-{[(2S)-2-cyclohexyl-2-({[(2S)-1-isopropylpyrrolidin-2-yl]carbonyl}amino)acetyl]amino}-3,3-dimethylbutanoyl]-N-{(1R,2R)-2-ethyl-1-[(pyrrolidin-1-ylsulfonyl)carbamoyl]cyclopropyl}-10,10-dimethyl-7-azadispiro[3.0.4.1]decane-8-carboxamide] | 8.35 |
| C=CC1CC1(NC(=O)[C@@H]1C[C@@]2(CN1C(=O)[C@@H](NC(=O)[C@@H](NC(=O)C1CCCCN1C(C)C)C1CCCCC1)C(C)(C)C)C(C)(C)C21CCC1)C(=O)NS(=O)(=O)N1CC(F)(F)C1 (stereo partly drawn) [Compound 164, (5R,8S)-7-[(2S)-2-{[(2S)-2-cyclohexyl-2-{[(1-isopropylpiperidin-2-yl)carbonyl]amino}acetyl]amino}-3,3-dimethylbutanoyl]-N-(1-{[(3,3-difluoroazetidin-1-yl)sulfonyl]carbamoyl}-2-vinylcyclopropyl)-10,10-dimethyl-7-azadispiro[3.0.4.1]decane-8-carboxamide] | 8.10 |
| C=C[C@@H]1C[C@]1(NC(=O)[C@@H]1C[C@@]2(CN1C(=O)[C@@H](NC(=O)[C@@H](NC(=O)[C@@H]1CCCCN1C(C)C)c1ccccc1)C(C)(C)C)C(C)(C)C21CCC1)C(=O)NS(=O)(=O)N1CCCC1 [Compound 104, (5R,8S)-7-[(2S)-2-{[(2S)-2-({[(2S)-1-isopropylpiperidin-2-yl]carbonyl}amino)-2-phenylacetyl]amino}-3,3-dimethylbutanoyl]-10,10-dimethyl-N-{(1R,2S)-1-[(pyrrolidin-1-ylsulfonyl)carbamoyl]-2-vinylcyclopropyl}-7-azadispiro[3.0.4.1]decane-8-carboxamide] | 7.82 |
| C=C[C@@H]1C[C@]1(NC(=O)[C@@H]1C[C@@]2(CN1C(=O)[C@@H](NC(=O)[C@@H](NC(=O)[C@@H]1CCCCN1C(C)C)C1CCCCC1)C1(C)CCOCC1)C(C)(C)C21CCC1)C(=O)NS(=O)(=O)N(CC)CC [Compound 150, (5R,8S)-7-[(2S)-2-{[(2S)-2-cyclohexyl-2-({[(2S)-1-isopropylpiperidin-2-yl]carbonyl}amino)acetyl]amino}-2-(4-methyltetrahydro-2H-pyran-4-yl)acetyl]-N-[(1R,2S)-1-{[(diethylamino)sulfonyl]carbamoyl}-2-vinylcyclopropyl]-10,10-dimethyl-7-azadispiro[3.0.4.1]decane-8-carboxamide] | 8.62 |
| C=C[C@@H]1C[C@]1(NC(=O)[C@@H]1C[C@@]2(CN1C(=O)[C@@H](NC(=O)[C@@H](NC(=O)[C@@H](OC)c1ccccc1)C1CCCCC1)C(C)(C)C)C(C)(C)C21CCC1)C(=O)NS(=O)(=O)N1CCCC1 [Compound 193, (5R,8S)-7-{(2S)-2-[(cyclohexyl{[(2S)-2-methoxy-2-phenylacetyl]amino}acetyl)amino]-3,3-dimethylbutanoyl}-10,10-dimethyl-N-{(1R,2S)-1-[(pyrrolidin-1-ylsulfonyl)carbamoyl]-2-vinylcyclopropyl}-7-azadispiro[3.0.4.1]decane-8-carboxamide] | 7.60 |
| C=C[C@@H]1C[C@]1(NC(=O)[C@@H]1C[C@@]2(CN1C(=O)[C@@H](NC(=O)[C@@H](NC(=O)c1cnn(-c3ccccc3)c1)C1CCCCC1)C(C)(C)C)C(C)(C)C21CCC1)C(=O)NS(=O)(=O)N1CCCC1 [Compound 184, (5R,8S)-7-{(2S)-2-[(cyclohexyl{[(1-phenyl-1H-pyrazol-4-yl)carbonyl]amino}acetyl)amino]-3,3-dimethylbutanoyl}-10,10-dimethyl-N-{(1R,2S)-1-[(pyrrolidin-1-ylsulfonyl)carbamoyl]-2-vinylcyclopropyl}-7-azadispiro[3.0.4.1]decane-8-carboxamide] | 7.46 |
| CC[C@@H]1C[C@]1(NC(=O)[C@@H]1C[C@@]2(CN1C(=O)[C@@H](NC(=O)[C@@H](NC(=O)[C@H]1CCCCN1C(C)C)C1CCCCC1)C(C)(C)C)C(C)(C)C21CCC1)C(=O)NS(=O)(=O)N1CCCC1 [Compound 123, (5R,8S)-7-[(2S)-2-{[(2S)-2-cyclohexyl-2-({[(2R)-1-isopropylpiperidin-2-yl]carbonyl}amino)acetyl]amino}-3,3-dimethylbutanoyl]-N-{(1R,2R)-2-ethyl-1-[(pyrrolidin-1-ylsulfonyl)carbamoyl]cyclopropyl}-10,10-dimethyl-7-azadispiro[3.0.4.1]decane-8-carboxamide] | 8.10 |
| CCCN(C)S(=O)(=O)NC(=O)[C@@]1(NC(=O)[C@@H]2C[C@@]3(CN2C(=O)[C@@H](NC(=O)[C@@H](NC(=O)[C@@H]2CCCCN2C(C)C)C2CCCCC2)C(C)(C)C)C(C)(C)C32CCC2)C[C@H]1CC [Compound 142, (5R,8S)-7-[(2S)-2-{[(2S)-2-cyclohexyl-2-({[(2S)-1-isopropylpiperidin-2-yl]carbonyl}amino)acetyl]amino}-3,3-dimethylbutanoyl]-N-[(1R,2R)-2-ethyl-1-({[methyl(propyl)amino]sulfonyl}carbamoyl)cyclopropyl]-10,10-dimethyl-7-azadispiro[3.0.4.1]decane-8-carboxamide] | 8.00 |
